In brackets after ≈: the same amount, converted by molar mass.
Assays:
[1] = system: H. flu; format: cell-based, H. influenza; conditions: H. flu
[2] = system: S. aureus; test: MIC assay, S. aureus; format: cell-based, Staphylococcus aureus
[3] = system: E. faecalis; test: MIC assay, E. faecalis; format: cell-based, Enterococcus faecalis
[4] = system: E coli; test: MIC assay, E coli; format: cell-based
[5] = system: S. pneumo.; test: MIC assay, S. pneumo.; format: cell-based, Streptococcus pneumoniae

Compound | MIC (μg/mL) H. flu [1] [µg/mL] | MIC (μg/mL) S. aureus [2] [µg/mL] | MIC (μg/mL) E. faecalis [3] [µg/mL] | MIC (μg/mL) E coli [4] [µg/mL] | MIC (μg/mL) S. pneumo. [5] [µg/mL]
COC1C=COC2(C)Oc3c(C)c(O)c4c(=O)c(c5oc6cc(N7CC8C(N)C8C7)cc(O)c6nc-5c4c3C2=O)NC(=O)C(C)=CC=CC(C)C(O)C(C)C(O)C(C)C(O)C1C [Compound 20, 25-O-deacetyl-3′-hydroxy-5′-[6-amino-(1R,5S)-3-azabicyclo[3.1.0]hex-3-yl]benzoxazinorifamycin] | >8 | 2 (≈ 2340 nM) | >8 | >8 | 1 (≈ 1170 nM)
CCOC(=O)NC1C2CN(c3cc(O)c4nc5c6c7c8c(C)c(O)c6c(=O)c(c-5oc4c3)NC(=O)C(C)=CC=CC(C)C(O)C(C)C(O)C(C)C(OC(C)=O)C(C)C(OC)C=COC(C)(O8)C7=O)CC21 (centres unmarked) [Compound 21] | 0.5 (≈ 516 nM) | 0.004 (≈ 4.13 nM) | 0.12 (≈ 124 nM) | 4 (≈ 4130 nM) | 0.001 (≈ 1.03 nM)
CO[C@H]1/C=C/O[C@@]2(C)Oc3c(C)c(O)c4c(=O)c(c5oc6cc(N7CCC(NC(=O)OC(C)C)CC7)cc(O)c6nc-5c4c3C2=O)NC(=O)/C(C)=C\C=C\[C@H](C)[C@H](O)[C@@H](C)[C@@H](O)[C@@H](C)[C@H](OC(C)=O)[C@@H]1C [Compound 22] | 2 (≈ 2030 nM) | 0.015 (≈ 15.2 nM) | 4 (≈ 4060 nM) | >8 | 0.00025 (≈ 0.254 nM)
CO[C@H]1/C=C/O[C@@]2(C)Oc3c(C)c(O)c4c(=O)c(c5oc6cc(N7CCC(NS(=O)(=O)C(F)(F)F)CC7)cc(O)c6nc-5c4c3C2=O)NC(=O)/C(C)=C\C=C\[C@H](C)[C@H](O)[C@@H](C)[C@@H](O)[C@@H](C)[C@H](OC(C)=O)[C@@H]1C [Compound 23] | 2 (≈ 1940 nM) | 0.015 (≈ 14.5 nM) | 4 (≈ 3880 nM) | >8 | 0.00012 (≈ 0.116 nM)
CCCC(=O)NC1CCN(c2cc(O)c3nc4c5c6c7c(C)c(O)c5c(=O)c(c-4oc3c2)NC(=O)/C(C)=C\C=C\[C@H](C)[C@H](O)[C@@H](C)[C@@H](O)[C@@H](C)[C@H](OC(C)=O)[C@H](C)[C@@H](OC)/C=C/O[C@@](C)(O7)C6=O)CC1 [Compound 24, 3′-hydroxy-5′-[4-butanamide-1-piperidinyl]benzoxazinorifamycin] | 2 (≈ 2060 nM) | 0.015 (≈ 15.5 nM) | 2 (≈ 2060 nM) | >8 | 0.001 (≈ 1.03 nM)
CO[C@H]1/C=C/O[C@@]2(C)Oc3c(C)c(O)c4c(=O)c(c5oc6cc(N7CCC(NS(C)(=O)=O)CC7)cc(O)c6nc-5c4c3C2=O)NC(=O)/C(C)=C\C=C\[C@H](C)[C@H](O)[C@@H](C)[C@@H](O)[C@@H](C)[C@H](OC(C)=O)[C@@H]1C [Compound 25] | 2 (≈ 2050 nM) | 0.008 (≈ 8.19 nM) | 2 (≈ 2050 nM) | >8 | 0.001 (≈ 1.02 nM)
CCCNC(=O)NC1CCN(c2cc(O)c3nc4c5c6c7c(C)c(O)c5c(=O)c(c-4oc3c2)NC(=O)/C(C)=C\C=C\[C@H](C)[C@H](O)[C@@H](C)[C@@H](O)[C@@H](C)[C@H](O)[C@H](C)[C@@H](OC)/C=C/O[C@@](C)(O7)C6=O)CC1 [Compound 26, 25-O-deacetyl-3′-hydroxy-5′-[4-propyluryl-1-piperidinyl]benzoxazinorifamycin] | 1 (≈ 1060 nM) | 0.008 (≈ 8.49 nM) | 2 (≈ 2120 nM) | >8 | 0.00012 (≈ 0.127 nM)
CO[C@H]1/C=C/O[C@@]2(C)Oc3c(C)c(O)c4c(=O)c(c5oc6cc(N7CCC(NS(C)(=O)=O)CC7)cc(O)c6nc-5c4c3C2=O)NC(=O)/C(C)=C\C=C\[C@H](C)[C@H](O)[C@@H](C)[C@@H](O)[C@@H](C)[C@H](O)[C@@H]1C [Compound 27] | 0.12 (≈ 128 nM) | 0.015 (≈ 16 nM) | 1 (≈ 1070 nM) | >8 | 0.001 (≈ 1.07 nM)
CCCNC(=O)NC1CCN(c2cc(O)c3nc4c5c6c7c(C)c(O)c5c(=O)c(c-4oc3c2)NC(=O)/C(C)=C\C=C\[C@H](C)[C@H](O)[C@@H](C)[C@@H](O)[C@@H](C)[C@H](OC(C)=O)[C@H](C)[C@@H](OC)/C=C/O[C@@](C)(O7)C6=O)CC1 [Compound 28, 3′-hydroxy-5′-[4-propyluryl-1-piperidinyl]benzoxazinorifamycin] | 0.25 (≈ 254 nM) | 0.03 (≈ 30.5 nM) | 1 (≈ 1020 nM) | >8 | 0.002 (≈ 2.03 nM)
CO[C@H]1/C=C/O[C@@]2(C)Oc3c(C)c(O)c4c(=O)c(c5oc6cc(N7CCC(NC(=O)OC(C)C)CC7)cc(O)c6nc-5c4c3C2=O)NC(=O)/C(C)=C\C=C\[C@H](C)[C@H](O)[C@@H](C)[C@@H](O)[C@@H](C)[C@H](O)[C@@H]1C [Compound 29] | 1 (≈ 1060 nM) | 0.008 (≈ 8.48 nM) | 2 (≈ 2120 nM) | >8 | 0.00012 (≈ 0.127 nM)
CCOC(=O)NC1CCN(c2ccc3nc4c5c6c7c(C)c(O)c5c(=O)c(c-4n(C)c3c2)NC(=O)/C(C)=C\C=C\[C@H](C)[C@H](O)[C@@H](C)[C@@H](O)[C@@H](C)[C@H](O)[C@H](C)[C@@H](OC)/C=C/O[C@@](C)(O7)C6=O)CC1 [Compound 31] | 0.25 (≈ 270 nM) | 0.03 (≈ 32.4 nM) | 0.25 (≈ 270 nM) | 8 (≈ 8640 nM) | 0.0005 (≈ 0.54 nM)
CO[C@H]1/C=C/O[C@@]2(C)Oc3c(C)c(O)c4c(=O)c(c5oc6cc(N7CCC(N)CC7)cc(O)c6nc-5c4c3C2=O)NC(=O)/C(C)=C\C=C\[C@H](C)[C@H](O)[C@@H](C)[C@@H](O)[C@@H](C)[C@H](OC(C)=O)[C@@H]1C [Compound 33, 3′-hydroxy-5′-[4-amino-1-piperidinyl]benzoxazinorifamycin] | 1 (≈ 1110 nM) | 0.008 (≈ 8.9 nM) | 1 (≈ 1110 nM) | >8 | 0.00006 (≈ 0.0667 nM)
CCNC(=O)NC1CCN(c2cc(O)c3nc4c5c6c7c(C)c(O)c5c(=O)c(c-4oc3c2)NC(=O)/C(C)=C\C=C\[C@H](C)[C@H](O)[C@@H](C)[C@@H](O)[C@@H](C)[C@H](OC(C)=O)[C@H](C)[C@@H](OC)/C=C/O[C@@](C)(O7)C6=O)CC1 [Compound 34, 3′-hydroxy-5′-[4-ethyluryl-1-piperidinyl]benzoxazinorifamycin] | 0.5 (≈ 515 nM) | 0.03 (≈ 30.9 nM) | 2 (≈ 2060 nM) | 8 (≈ 8250 nM) | 0.001 (≈ 1.03 nM)
CCCS(=O)(=O)NC1CCN(c2cc(O)c3nc4c5c6c7c(C)c(O)c5c(=O)c(c-4oc3c2)NC(=O)C(C)=CC=CC(C)C(O)C(C)C(O)C(C)C(OC(C)=O)C(C)C(OC)C=COC(C)(O7)C6=O)CC1 (centres unmarked) [Compound 35] | 0.5 (≈ 497 nM) | 0.015 (≈ 14.9 nM) | 4 (≈ 3980 nM) | 8 (≈ 7960 nM) | 0.00025 (≈ 0.249 nM)
CCCC(=O)NC1CCN(c2cc(O)c3nc4c5c6c7c(C)c(O)c5c(=O)c(c-4oc3c2)NC(=O)C(C)=CC=CC(C)C(O)C(C)C(O)C(C)C(O)C(C)C(OC)C=COC(C)(O7)C6=O)CC1 (centres unmarked) [Compound 36, 25-O-deacetyl-3′-hydroxy-5′-[4-butanamide-1-piperidinyl]benzoxazinorifamycin] | 0.25 (≈ 270 nM) | 0.004 (≈ 4.31 nM) | 2 (≈ 2160 nM) | >8 | 0.00003 (≈ 0.0324 nM)
CCNC(=O)NC1CCN(c2cc(O)c3nc4c5c6c7c(C)c(O)c5c(=O)c(c-4oc3c2)NC(=O)C(C)=CC=CC(C)C(O)C(C)C(O)C(C)C(O)C(C)C(OC)C=COC(C)(O7)C6=O)CC1 (centres unmarked) [Compound 37, 25-O-deacetyl-3′-hydroxy-5′-[4-ethyluryl-1-piperidinyl]benzoxazinorifamycin] | 0.25 (≈ 269 nM) | 0.03 (≈ 32.3 nM) | 2 (≈ 2160 nM) | >8 | 0.004 (≈ 4.31 nM)
COC1C=COC2(C)Oc3c(C)c(O)c4c(=O)c(c5oc6cc(N7CCC(NS(=O)(=O)C(F)(F)F)CC7)cc(O)c6nc-5c4c3C2=O)NC(=O)C(C)=CC=CC(C)C(O)C(C)C(O)C(C)C(O)C1C (centres unmarked) [Compound 38] | 0.25 (≈ 253 nM) | 0.12 (≈ 121 nM) | 8 (≈ 8090 nM) | >8 | 0.015 (≈ 15.2 nM)
COC1C=COC2(C)Oc3c(C)c(O)c4c(=O)c(c5oc6cc(N7CCC(N)CC7)cc(O)c6nc-5c4c3C2=O)NC(=O)C(C)=CC=CC(C)C(O)C(C)C(O)C(C)C(O)C1C (centres unmarked) [Compound 39, 25-O-deacetyl-3′-hydroxy-5′-[4-amino-1-piperidinyl]benzoxazinorifamycin] | 0.25 (≈ 292 nM) | 0.03 (≈ 35 nM) | 2 (≈ 2330 nM) | >8 | 0.001 (≈ 1.17 nM)
COCCOC(=O)NC1CCN(c2cc(O)c3nc4c5c6c7c(C)c(O)c5c(=O)c(c-4oc3c2)NC(=O)C(C)=CC=CC(C)C(O)C(C)C(O)C(C)C(OC(C)=O)C(C)C(OC)C=COC(C)(O7)C6=O)CC1 (centres unmarked) [Compound 41, 3′-hydroxy-5′-[4-methoxyethylcarbamyl-1-piperidinyl]benzoxazinorifamycin] | 2 (≈ 2000 nM) | 0.25 (≈ 250 nM) | >8 | >8 | 0.0005 (≈ 0.499 nM)

From US7271165B2, “Rifamycin analogs and uses thereof” (priority 2003, dated 2007)
